A short description of the data set: Apparent permeability across apical to basolateral side in human Caco-2 cells measured after 60 to 120 mins. As to conditions: time 60-120 min. It is filed as ADME, cell-based. (In general: Passage across Caco-2 layers is used to estimate intestinal permeability.)

Take `CC(C)CN1CC(=O)N[C@@H](Cc2ccccc2)C(=O)NCCC[C@@H](C)C(=O)N[C@@H](C)C1=O`: the permeability entry is reported as “Permeable”.

Source of the values: ChEMBL document CHEMBL5036305, “Modulation of the Passive Permeability of Semipeptidic Macrocycles: N- and C-Methylations Fine-Tune Conformation and Properties” (J Med Chem, 2021).
